Test results: PubChem BioAssay AID1918952 (Molecular Pharmacology Branch, DTP, NCI, 2023)

System: LG0703-F948-PDC complex spheroid viability
Assay: Anticancer human tumor LG0703-F948-PDC patient-derived lung adenocarcinoma cell line growth inhibition
Settings: for IC50: curve of first compound; for viability, T/C: stronger effect = lower value
In short: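 Drug combinations with the LSD1 inhibitor iadademstat tested on tumor cells co-cultured as spheroids with endothelial cells and mesenchymal stem cells. Concentrations descended in half-log increments from clinical Cmax or 10 microM.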

[1] = second compound 0.1 µM, first compound 0.000949 µM
[2] = second compound 0.1 µM, first compound 0.003 µM
[3] = second compound 0.1 µM, first compound 0.00949 µM
[4] = second compound 0.1 µM, first compound 0.03 µM
[5] = second compound 0.1 µM, first compound 0.0949 µM
[6] = second compound 0.1 µM, first compound 0.3 µM
[7] = second compound 0.316 µM, first compound 0.000949 µM
[8] = second compound 0.316 µM, first compound 0.003 µM
[9] = second compound 0.316 µM, first compound 0.00949 µM
[10] = second compound 0.316 µM, first compound 0.03 µM
[11] = second compound 0.316 µM, first compound 0.0949 µM
[12] = second compound 0.316 µM, first compound 0.3 µM
[13] = second compound 1 µM, first compound 0.000949 µM
[14] = second compound 1 µM, first compound 0.003 µM
[15] = second compound 1 µM, first compound 0.00949 µM
[16] = second compound 1 µM, first compound 0.03 µM
[17] = second compound 1 µM, first compound 0.0949 µM
[18] = second compound 1 µM, first compound 0.3 µM
[19] = second compound 3.16 µM, first compound 0.000949 µM
[20] = second compound 3.16 µM, first compound 0.003 µM
[21] = second compound 3.16 µM, first compound 0.00949 µM
[22] = second compound 3.16 µM, first compound 0.03 µM
[23] = second compound 3.16 µM, first compound 0.0949 µM
[24] = second compound 3.16 µM, first compound 0.3 µM
[25] = second compound 10 µM, first compound 0.000949 µM
[26] = second compound 10 µM, first compound 0.003 µM
[27] = second compound 10 µM, first compound 0.00949 µM
[28] = second compound 10 µM, first compound 0.03 µM
[29] = second compound 10 µM, first compound 0.0949 µM
[30] = second compound 10 µM, first compound 0.3 µM
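Further: spheroids exposed to agents for seven days before readout.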
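Wherever viability, T/C is given: 100% = DMSO vehicle control wells as normalization base.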

`CCc1c2c(nc3ccc(O)cc13)-c1cc3c(c(=O)n1C2)COC(=O)[C@]3(O)CC` + NC1CC1c1ccc(-c2cccc(O)c2)cc1 showed an IC50 (second compound 0.1 µM) of 1.2 nM, an IC50 (second compound 0.316 µM) of 1.31 nM and an IC50 (second compound 1 µM) of 2.33 nM. For the same molecule, the IC50 (second compound 3.16 µM) was 3.09 nM, the IC50 (second compound 10 µM) was 2.61 nM and the viability, T/C [1] was 55.8%. For the same molecule, the viability, T/C [2] was 29.2%, the viability, T/C [3] was 21.3% and the viability, T/C [4] was 11.7%. It also gave a viability, T/C [5] of 5.98%, a viability, T/C [6] of 3.08% and a viability, T/C [7] of 54.8%. It also gave a viability, T/C [8] of 37.7%, a viability, T/C [9] of 24.2% and a viability, T/C [10] of 12.6%. The viability, T/C [11] was 5.51%, the viability, T/C [12] was 2.54% and the viability, T/C [13] was 68.2%. It also gave a viability, T/C [14] of 44.7%, a viability, T/C [15] of 25.4% and a viability, T/C [16] of 11.7%. The viability, T/C [17] was 5.78%, the viability, T/C [18] was 2.05% and the viability, T/C [19] was 69.9%. For the same molecule, the viability, T/C [20] was 49.7%, the viability, T/C [21] was 29.8% and the viability, T/C [22] was 12.2%. The viability, T/C [23] was 2.96%, the viability, T/C [24] was 1.53% and the viability, T/C [25] was 68.4%. It also gave a viability, T/C [26] of 47.3%, a viability, T/C [27] of 23.1% and a viability, T/C [28] of 8%. For the same molecule, the viability, T/C [29] was 1.01% and the viability, T/C [30] was 0.49%.

`Nc1ccn(C2OC(CO)C(O)C2(F)F)c(=O)n1` (stereo not given) + NC1CC1c1ccc(-c2cccc(O)c2)cc1 showed an IC50 (second compound 0.1 µM) of 12.6 nM, an IC50 (second compound 0.316 µM) of 74.2 nM and an IC50 (second compound 1 µM) of 100 nM. The IC50 (second compound 3.16 µM) was 145 nM, the IC50 (second compound 10 µM) was > 300 nM and the viability, T/C [1] was 79%. The viability, T/C [2] was 50.8%, the viability, T/C [3] was 51.9% and the viability, T/C [4] was 56.6%. For the same molecule, the viability, T/C [5] was 43.9%, the viability, T/C [6] was 32.3% and the viability, T/C [7] was 70.2%. For the same molecule, the viability, T/C [8] was 63.9%, the viability, T/C [9] was 66.8% and the viability, T/C [10] was 54%. The viability, T/C [11] was 48.9%, the viability, T/C [12] was 37.6% and the viability, T/C [13] was 76.9%. It also gave a viability, T/C [14] of 66.5%, a viability, T/C [15] of 63.6% and a viability, T/C [16] of 60.1%. For the same molecule, the viability, T/C [17] was 51.9%, the viability, T/C [18] was 40.3% and the viability, T/C [19] was 81.5%. For the same molecule, the viability, T/C [20] was 80.6%, the viability, T/C [21] was 87.3% and the viability, T/C [22] was 66%. The viability, T/C [23] was 57.1%, the viability, T/C [24] was 41.4% and the viability, T/C [25] was 87%. It also gave a viability, T/C [26] of 78.3%, a viability, T/C [27] of 83.9% and a viability, T/C [28] of 68.9%. For the same molecule, the viability, T/C [29] was 59% and the viability, T/C [30] was 51.5%.
